System: 633275-114-R-J1-PDC complex spheroids, viability
Experiment: Anticancer human tumor 633275-114-R-J1-PDC patient-derived endometrial adenocarcinoma cell line growth inhibition [GQUAD]
Settings: for IC50: curve of first compound; for viability, T/C: stronger effect = lower value
In short: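 Multi-cell-type spheroids of tumor cells with HUVEC and mesenchymal stem cells, treated with drug combinations. Concentrations descend in half-log steps from near clinical Cmax, or from 10 microM where Cmax is unknown; viability read-out.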
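Also: spheroids exposed to the agents for seven days.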
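For viability, T/C in this document: percent of DMSO vehicle control viability which is 100%.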

Compound `COc1cc(C2c3cc4c(cc3C(OC3OC5COC(C)OC5C(O)C3O)C3COC(=O)C23)OCO4)cc(OC)c1O` (configuration not stated) + Cc1cnc(CNC(=O)c2c(=O)c3ccc(N4CCCN(C)CC4)nc3n3c2sc2ccccc23)cn1 has an IC50 (second compound 0.0316 µM) of 185 nM, an IC50 (second compound 0.1 µM) of 86.6 nM and an IC50 (second compound 0.316 µM) of less than 31.6 nM. It also gave an IC50 (second compound 1 µM) of less than 31.6 nM, an IC50 (second compound 3.16 µM) of less than 31.6 nM and an IC50 (second compound 10 µM) of less than 31.6 nM. It also gave a viability, T/C (second compound 0.0316 µM, first compound 0.0316 µM) of 53.3%, a viability, T/C (second compound 0.0316 µM, first compound 0.1 µM) of 55.2% and a viability, T/C (second compound 0.0316 µM, first compound 0.316 µM) of 47.4%. It also gave a viability, T/C (second compound 0.0316 µM, first compound 1 µM) of 41.3%, a viability, T/C (second compound 0.0316 µM, first compound 3.16 µM) of 36.6% and a viability, T/C (second compound 0.0316 µM, first compound 10 µM) of 27.8%. The viability, T/C (second compound 0.1 µM, first compound 0.0316 µM) was 54.4%, the viability, T/C (second compound 0.1 µM, first compound 0.1 µM) was 45.2% and the viability, T/C (second compound 0.1 µM, first compound 0.316 µM) was 50.1%. For the same compound, the viability, T/C (second compound 0.1 µM, first compound 1 µM) was 40%, the viability, T/C (second compound 0.1 µM, first compound 3.16 µM) was 31.8% and the viability, T/C (second compound 0.1 µM, first compound 10 µM) was 29.4%. It also gave a viability, T/C (second compound 0.316 µM, first compound 0.0316 µM) of 43.4%, a viability, T/C (second compound 0.316 µM, first compound 0.1 µM) of 45.8% and a viability, T/C (second compound 0.316 µM, first compound 0.316 µM) of 43.6%. For the same compound, the viability, T/C (second compound 0.316 µM, first compound 1 µM) was 41.4%, the viability, T/C (second compound 0.316 µM, first compound 3.16 µM) was 31.9% and the viability, T/C (second compound 0.316 µM, first compound 10 µM) was 28.1%. For the same compound, the viability, T/C (second compound 1 µM, first compound 0.0316 µM) was 40.9%, the viability, T/C (second compound 1 µM, first compound 0.1 µM) was 41% and the viability, T/C (second compound 1 µM, first compound 0.316 µM) was 43.5%. For the same compound, the viability, T/C (second compound 1 µM, first compound 1 µM) was 41%, the viability, T/C (second compound 1 µM, first compound 3.16 µM) was 34.1% and the viability, T/C (second compound 1 µM, first compound 10 µM) was 28.4%. For the same compound, the viability, T/C (second compound 3.16 µM, first compound 0.0316 µM) was 31.7%, the viability, T/C (second compound 3.16 µM, first compound 0.1 µM) was 32.9% and the viability, T/C (second compound 3.16 µM, first compound 0.316 µM) was 35.9%. For the same compound, the viability, T/C (second compound 3.16 µM, first compound 1 µM) was 32.7%, the viability, T/C (second compound 3.16 µM, first compound 3.16 µM) was 34.2% and the viability, T/C (second compound 3.16 µM, first compound 10 µM) was 25.5%. For the same compound, the viability, T/C (second compound 10 µM, first compound 0.0316 µM) was 28.2%, the viability, T/C (second compound 10 µM, first compound 0.1 µM) was 31.4% and the viability, T/C (second compound 10 µM, first compound 0.316 µM) was 28.7%. For the same compound, the viability, T/C (second compound 10 µM, first compound 1 µM) was 32.9%, the viability, T/C (second compound 10 µM, first compound 3.16 µM) was 27.2% and the viability, T/C (second compound 10 µM, first compound 10 µM) was 20.9%.

From PubChem BioAssay AID2060505 (Molecular Pharmacology Branch, DTP, NCI, 2025)
